Structures can show the parent of a compound that is named as a salt.
Legend:
substance P receptor = molecular target: T1, substance P receptor (Cavia porcellus, UniProt P30547); experiment: Test for binding to guinea-pig substance P receptor (crude lung membrane sample); settings: crude guinea-pig lung membrane sample, [3H]substance P; Ki from IC50 and Kd; read-out: Ki
T1 construct: A preparation of a crude lung membrane sample was prepared; from tissue; host or cells: guinea-pig lung (crude membrane sample)
Method: A preparation of a crude lung membrane sample was prepared, and a test for binding of a test substance to the sample was performed according to the method described in EP0336230A2.
The binding effect of the test substance to a substance P receptor was calculated as an affinity (Ki) of the test substance for the substance P receptor from a 50% binding concentration (IC50) and an affinity (Kd) of [^3H]substance P for the substance P receptor.

neurokinin NK2 receptor = molecular target: T2, neurokinin NK2 receptor (Cavia porcellus, UniProt Q64077); experiment: Effect of suppressing neurokinin A-induced airway contraction (in vivo, intratracheal administration); set-up: species or system guinea pig; settings: guinea pigs, intratracheal administration 60 minutes before 4 μg/kg i.v. NKA, AUC of increase in airway pressure over 10 minutes; for ED50: guinea pig, read-out: ID50 (the source's name)
T2 construct: Using healthy guinea pigs (body weight, 350 to 550 g; Hartley male guinea pigs); from tissue; host or cells: live anaesthetised Hartley male guinea pigs (airway, in vivo)
T2 sequence (Q64077 1-402): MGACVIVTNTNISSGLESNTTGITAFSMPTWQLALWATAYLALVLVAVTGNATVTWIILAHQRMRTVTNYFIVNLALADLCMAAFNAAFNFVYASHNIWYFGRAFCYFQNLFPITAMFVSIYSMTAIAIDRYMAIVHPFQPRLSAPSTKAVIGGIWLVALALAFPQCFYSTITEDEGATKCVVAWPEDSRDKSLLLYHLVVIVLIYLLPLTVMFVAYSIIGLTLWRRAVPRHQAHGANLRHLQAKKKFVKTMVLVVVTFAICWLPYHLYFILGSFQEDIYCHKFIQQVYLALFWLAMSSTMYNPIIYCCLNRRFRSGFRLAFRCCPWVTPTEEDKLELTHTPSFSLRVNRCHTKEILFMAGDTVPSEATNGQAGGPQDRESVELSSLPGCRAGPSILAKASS
Summary of the method: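 Anesthetized, gallamine-paralysed, ventilated male Hartley guinea pigs received compound in 5% glucose intratracheally 60 minutes before 4 μg/kg NKA i.v. AUC of airway pressure increase over 10 minutes gave inhibition versus vehicle controls, expressed as ID50.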

muscarine M3 receptor = experiment: Effect of suppressing methacholine-induced airway contraction (in vivo, intratracheal administration); set-up: species or system guinea pig; settings: guinea pigs, intratracheal administration 60 minutes before 30 μg/kg i.v. methacholine; AUC of increase in airway pressure over 10 minutes
Summary of the method: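 Anesthetized, gallamine-paralysed, ventilated male Hartley guinea pigs (350–550 g); compound in 5% glucose given intratracheally 60 min before 30 μg/kg i.v. methacholine. Airway pressure AUC over 10 min scored; ID50 from inhibition versus 5% glucose vehicle group.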

T1 sequence (P30547 whole entry): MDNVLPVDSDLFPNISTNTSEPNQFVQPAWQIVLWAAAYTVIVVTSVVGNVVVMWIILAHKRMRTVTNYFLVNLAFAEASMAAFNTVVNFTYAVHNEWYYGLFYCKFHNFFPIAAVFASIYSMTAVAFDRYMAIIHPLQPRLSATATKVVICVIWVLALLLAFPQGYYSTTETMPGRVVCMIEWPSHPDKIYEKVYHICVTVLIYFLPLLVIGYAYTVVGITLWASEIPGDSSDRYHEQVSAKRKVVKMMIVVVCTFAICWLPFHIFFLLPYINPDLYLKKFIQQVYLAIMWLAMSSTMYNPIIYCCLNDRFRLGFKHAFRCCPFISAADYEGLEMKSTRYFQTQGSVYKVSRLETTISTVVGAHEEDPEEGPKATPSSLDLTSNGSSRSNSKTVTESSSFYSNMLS

Compound | Ki (substance P receptor) [nM] | ED50 (neurokinin NK2 receptor) [mg/kg] | ID50 (muscarine M3 receptor) [mg/kg] | ID50 (neurokinin NK2 receptor) [mg/kg]
CN(CCN1CCC(OC(=O)Nc2ccccc2-c2ccccc2)CC1)C(=O)CCCCN(C)c1ccc(C(=O)N(C)CCCN(C)C(=O)CO[C@H]2Cc3ccccc3C23CCN(CC[C@@]2(c4ccc(F)cc4)CN(C(=O)c4cc(C(F)(F)F)cc(C(F)(F)F)c4)CO2)CC3)cc1 [Example 38, 1-{2-[{5-[{4-[{3-[({[(2S)-1′-{2-[(5R)-3-[3,5-Bis(trifluoromethyl)benzoyl]-5-(4-fluorophenyl)-1,3-oxazolidin-5-yl]ethyl}-2,3-dihydrospiro[indene-1,4′-piperidin]-2-yl]oxy}acetyl)(methy)amino]propyl}(methyl)carbamoyl]phenyl}(methyl)amino]pentanoyl}(methyl)amino]ethyl}piperidin-4-yl biphenyl-2-ylcarbamate trihydrochloride] | 1.5 | 0.0253 | 0.0257 | –
CN(CCN1CCC(OC(=O)Nc2ccccc2-c2ccccc2)CC1)C(=O)CCCCCN(C)c1ccc(C(=O)N(C)CCCN(C)C(=O)CO[C@H]2Cc3ccccc3C23CCN(CC[C@@]2(c4ccc(F)cc4)CN(C(=O)c4cc(C(F)(F)F)cc(C(F)(F)F)c4)CO2)CC3)cc1 [Example 76, 1-{2-[{6-[{4-[{3-[({[(2S)-1′-{2-[(5R)-3-[3,5-Bis(trifluoromethyl)benzoyl]-5-(4-fluorophenyl)-1,3-oxazolidin-5-yl]ethyl}-2,3-dihydrospiro[indene-1,4′-piperidin]-2-yl]oxy}acetyl)(methyl)amino]propyl}(methyl)carbamoyl]phenyl}(methyl)amino]hexanoyl}(methyl)amino]ethyl}piperidin-4-yl biphenyl-2-ylcarbamate] | 2.7 | 0.0176 | 0.0292 | –
CN(CCN1CCC(OC(=O)Nc2ccccc2-c2ccccc2)CC1)C(=O)CCCCCNc1nc2ccc(C(=O)N(C)CCCN(C)C(=O)CO[C@H]3Cc4ccccc4C34CCN(CC[C@@]3(c5ccc(F)cc5)CN(C(=O)c5cc(C(F)(F)F)cc(C(F)(F)F)c5)CO3)CC4)cc2s1 [Example 93, 1-(2-{[6-({6-[{3-[({[(2S)-1′-{2-[(5R)-3-[3,5-Bis(trifluoromethyl)benzoyl]-5-(4-fluorophenyl)-1,3-oxazolidin-5-yl]ethyl}-2,3-dihydrospiro[indene-1,4′-piperidin]-2-yl]oxy}acetyl)(methy)amino]propyl}(methyl)carbamoyl]-1,3-benzothiazol-2-yl}amino)hexanoyl](methyl)amino}ethyl)piperidin-4-yl biphenyl-2-ylcarbamate] | 1 | – | 0.0372 | 0.0437
Cc1cc(NCCCCCC(=O)N(C)CCN2CCC(OC(=O)Nc3ccccc3-c3ccccc3)CC2)sc1C(=O)N(C)CCCN(C)C(=O)CO[C@H]1Cc2ccccc2C12CCN(CC[C@@]1(c3ccc(F)cc3)CN(C(=O)c3cc(C(F)(F)F)cc(C(F)(F)F)c3)CO1)CC2 [Example 30, 1-(2-{[6-({5-[{3-[({[(2S)-1′-{2-[(5R)-3-[3,5-Bis(trifluoromethyl)benzoyl]-5-(4-fluorophenyl)-1,3-oxazolidin-5-yl]ethyl}-2,3-dihydrospiro[indene-1,4′-piperidin]-2-yl]oxy}acetyl)(methyl)amino]propyl}(methyl)carbamoyl]-4-methyl-2-thienyl}amino)hexanoyl](methyl)amino}ethyl)piperidin-4-yl biphenyl-2-ylcarbamate trihydrochloride] | 1.9 | 0.0632 | 0.0088 | –
